Data taken from patent US8198352B2, “High purity monoalkyltin compounds and uses thereof” (Arkema France, priority 2008, dated 2012).

Tests used:
[1] = dihydropyridine-based compound alone, well known; cited from earlier work
rat, Wistar outbred = test: Example AA: 14-day oral (diet) dose-range toxicity study; type: in vivo; settings: via the diet, 14 consecutive days
Text: The aim of this study is to select appropriate dose-levels for the main study.
Materials and Methods: • Groups: one control group and four test groups (4 males and 4 female per group) administered with different dose levels of the test substance; • Housing: 2 rats/sex/cage, macrolon cages; • Species: rat, Wistar outbred, Charles River Wiga GmbH, 9-10 weeks of age at start; • Carrier: Commercial rodent diet (Rat & Mouse No. 3 Breeding diet, RM3), ad libitum; • Treatment: Administration via the diet during 14 consecutive days; one batch of test diets is prepared shortly before initiation of treatment and stored in a freezer/refrigerator; the feed in the animal feeders is refreshed twice per week; • Clinical observations: general observations (all rats): daily; morbidity is checked again in the afternoon; • Body weight: at least once pretest, twice per week from the start of treatment (for the last time, on the day of scheduled necropsy); • Food consumption: twice weekly per cage (2 rats/cage) from the start of treatment; • Water consumption: visual inspection of the drinking bottles; • Pathology: • macroscopic examination (all rats); • weighing the following organs of all the surviving rats: kidneys, liver, spleen, testes, thymus; • preservation: the weighed organs are preserved in formalin and discarded when the results of the subsequent 90-day study indicate non need for microscopy on tissues from the 14-day study;
(§1) On each day of analysis, calibration solutions are prepared by spiking rodent diet with a stock solution of the organotin compound followed by derivatisation with sodium tetraethyl borate, in order to derivatise the octyltin compounds to the corresponding octyltin-ethyl compounds, with simultaneous extraction of the derivatised compounds into hexane.
(§2) The concentration of the test substance in diet is then determined by GC-MS of the hexane extracts.

wistar rats = test: Example AB: reproduction/developmental toxicity screening test (OECD 421); type: in vivo, rat
Text: The objective of this study is to assess whether octyltin tris (2-ethylexylmercaptoacetate) causes adverse effects on reproduction and/or development of wistar rats. This study was preceded by a dose-range finding study (see Example AA).
Materials and Methods: • Groups: one control group and three test groups (12 males and 12 female per group) administered with different dose levels of the test substance; • Housing: Pre-mating (PM): 4 rats/sex/cage, macrolon cages; • Mating (M): 1 male and 1 female per cage; • Gestation (G) and lactation: 1 rat/sex/cage, macrolon cages; • Species: rat, Wistar outbred, Charles River Wiga GmbH, 9-10 weeks of age at start; • Carrier: Commercial rodent diet (Rat & Mouse No. 3 Breeding diet, RM3), ad libitum; • Treatment: Administration via the diet during 14 consecutive days premating; during 14 consecutive days mating, gestation and lactation up to 4 days (males are given the test substance in the diet until sacrifice at the end of the mating period); • one or two batches of test diets are prepared shortly before initiation of treatment and stored in a freezer/refrigerator; the feed in the animal feeders is refreshed once per week; • Clinical observations: general clinical observations (all rats): daily; morbidity is checked again in the afternoon; • Body weight: at least once pretest, males and females, premating and mating weekly; • Food consumption: males and females, premating and mating weekly; for female during gestation: GD 0, 7, 14 and 21 during lactation; PN 1 and 4; • Pups: sex, body, weight, number of live and dead pups, clinical signs PN 1 and 4; • Water consumption: visual inspection of the drinking bottles; • Pathology: • macroscopic examination (all rats); • count: number of implantations (uterus) and corpora lutea (ovaria); • weighing the following organs of all the surviving rats: testes (males), epididymes […], thymus; • preservation all animals): testes, epididymes, seminal vesicles, prostate, ovaries, uterus, thymus and organs and tissues showing macroscopic abnormalities; the organs are preserved in formalin and discarded when the results of the OECD 421 study indicate non need for microscopy; • Histopathology: preserved tissues for control and high level only […].
as §1, §2

[2] = rat, 200, 500 and 1250 mg/kg diet

Row | Structure (SMILES) | result in dynamic thermal stability (colour) test [1] | abnormalities at necropsy (rat, Wistar outbred) | change in body weight and food consumption (rat, Wistar outbred) | clinical abnormalities (rat, Wistar outbred) | effects on organ weights (rat, Wistar outbred) | NOAEL expressed per body weight (wistar rats; female animals) [mg/kg body weight/day] | NOAEL expressed per body weight (wistar rats; male animals) | effects on pre- and post-natal development (wistar rats; [2]) | effects on reproduction organs (wistar rats; [2]) | tolerability of oral administration (wistar rats; [2]) | no averse effect level (NOAEL) for parental toxicity, fertility and development (wistar rats; rat, oral via the diet) [mg/kg diet]
1 | CCCCCCCCCCCCOC(=O)C1=C(C)NC(C)=C(C(=O)OCCCCCCCCCCCC)C1 [DHP, dihydro-1,4-dimethyl-2,6-dicarbododecyloxy-3,5-pyridine] | poor results | – | – | – | – | – | – | – | – | – | –
2 | CCCCCCC[CH2][Sn]([S]CC(=O)OCC(CC)CCCC)([S]CC(=O)OCC(CC)CCCC)[S]CC(=O)OCC(CC)CCCC (centres unmarked) [octyltin tris (2-ethylexylmercaptoacetate)] | – | no abnormalities were observed at necropsy | no change in body weight and food consumption | no clinical abnormalities were observed | no effects were observed on organ weights | ~96 | approximately 72 mg/kg body weight/day | No effects were observed | No effects were observed | well tolerated at all dose-levels | 1250
